# Legend:
# G9a methylation = G9a methylation level in NALM6 cells treated with KDM inhibitors; type: cell-based, human
# Description: There are two distinct families of KDM with distinct catalytic mechanisms (FIG. 50B). We tested one inhibitor for each family: OG-L002 inhibits the two members of the LSD family of KDM, and JIB-04 inhibits several members of the large JmjC family of KDM, including members of the KDM2, KDM3, and KDM4 subfamilies. We propose that there is an equilibrium between the enzymes that methylate G9a and GLP (in this case they methylate themselves) and the KDM enzymes to maintain a moderate level of G9a/GLP methylation (FIGS. 50C-1, 50C-2), and that inhibition of the KDMs that normally demethylate G9a and GLP (currently unknown) will increase the level of G9a/GLP methylation and thereby enhance the coactivator activity of G9a/GLP, the GC activation of the cell death genes, and GC-induced cell death in B-ALL cells. Thus, as a first step to identify the G9a/GLP-specific demethylases, we treated NALM6 cells with the two inhibitors named above. OG-L002 had no effect on the level of G9a methylation, but JIB-04 increased the level of G9a methylation in NALM6 cells (FIG. 50D).
# hG9a = target: T1, hG9a (Homo sapiens, UniProt Q96KQ7); assay: Methylation of HA-hG9a in Cos-7 cells (pan met-K immunoprecipitation/immunoblot); type: cell-based, African green monkey; details: Cos-7 cells, 2 μM inhibitor, 24 h
# T1 construct: transfected with a plasmid encoding full length HA-hG9a and treated with 2 μM UNC0646; expressed in transfected cells; host or cells: Cos-7
# T1 sequence (Q96KQ7 1-1210): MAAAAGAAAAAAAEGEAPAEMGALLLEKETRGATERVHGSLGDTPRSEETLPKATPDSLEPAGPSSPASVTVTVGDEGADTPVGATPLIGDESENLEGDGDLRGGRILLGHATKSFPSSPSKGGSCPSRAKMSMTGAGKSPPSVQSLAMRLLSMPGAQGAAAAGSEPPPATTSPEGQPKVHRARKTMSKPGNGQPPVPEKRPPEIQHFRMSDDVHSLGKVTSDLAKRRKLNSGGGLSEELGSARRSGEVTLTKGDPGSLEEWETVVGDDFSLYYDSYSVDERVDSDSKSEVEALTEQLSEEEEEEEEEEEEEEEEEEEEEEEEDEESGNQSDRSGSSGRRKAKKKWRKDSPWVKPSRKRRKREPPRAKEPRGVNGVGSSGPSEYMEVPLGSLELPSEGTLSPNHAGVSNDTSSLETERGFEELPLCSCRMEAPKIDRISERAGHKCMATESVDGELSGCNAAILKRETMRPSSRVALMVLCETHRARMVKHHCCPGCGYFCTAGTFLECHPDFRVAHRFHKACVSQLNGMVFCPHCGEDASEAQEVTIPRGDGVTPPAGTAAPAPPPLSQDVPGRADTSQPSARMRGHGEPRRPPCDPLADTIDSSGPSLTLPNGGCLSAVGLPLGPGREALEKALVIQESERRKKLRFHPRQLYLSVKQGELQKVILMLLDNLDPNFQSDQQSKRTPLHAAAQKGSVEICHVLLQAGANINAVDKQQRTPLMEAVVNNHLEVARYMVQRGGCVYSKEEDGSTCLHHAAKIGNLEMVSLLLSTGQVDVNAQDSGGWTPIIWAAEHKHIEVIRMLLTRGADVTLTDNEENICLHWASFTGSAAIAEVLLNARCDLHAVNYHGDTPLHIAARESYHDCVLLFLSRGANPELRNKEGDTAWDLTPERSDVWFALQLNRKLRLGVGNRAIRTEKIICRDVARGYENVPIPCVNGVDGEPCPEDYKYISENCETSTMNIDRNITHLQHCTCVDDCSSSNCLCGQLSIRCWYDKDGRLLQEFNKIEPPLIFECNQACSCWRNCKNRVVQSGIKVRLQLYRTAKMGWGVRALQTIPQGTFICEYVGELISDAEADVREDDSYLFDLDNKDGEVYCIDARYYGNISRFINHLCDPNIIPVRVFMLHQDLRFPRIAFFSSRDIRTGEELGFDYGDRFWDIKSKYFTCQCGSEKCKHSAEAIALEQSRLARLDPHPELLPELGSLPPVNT
# Method: Cells were transiently transfected (where indicated) using Lipofectamine 2000 (Invitrogen) with 5 μg each of the indicated plasmids according to the manufacturer's protocol. […] Protein extracts were incubated with 1 μg of the indicated primary antibodies overnight at 4° C. with shaking. Protein A/G Plus Agarose (Santa Cruz sc-2003) beads were added and the mixture was incubated 2 hr at 4° C. The immunoprecipitates were separated on SDS-PAGE. Immunoblotting was conducted with primary antibodies against HA epitope (3F10 Roche Applied Science); G9a (G6919), FLAG (F1804), (3-actin (A5441), or GAPDH (G9545) from Sigma; aurora kinase B (ab2254), HP1γ (ab10480), HP1γ (ab56978), phospho-593-HP1γ (ab45270) or pan methyllysine (ab23366) from Abcam; GR (sc-8992) from Santa Cruz; GLP (09-078), or pan phospho-threonine (AB1607) from Millipore; phospho-S211-GR (#4161), H3K9me3 (#13969), H3S10ph (#53348), Histone H3 (#4499) from Cell signaling; or E-cadherin (610182) from BD transduction laboratories. Secondary antibodies from Santa Cruz Biotechnology (anti-rat) and Promega (anti-rabbit and anti-mouse) were used for chemiluminescence detection using Super Signal West Dura (Thermo Scientific) for proteins with low expression levels and ECL prime detection reagent (Amersham) for all other proteins according to the manufacturers' instructions. In immunoprecipitation experiments 3% of the input of each sample was analyzed by immunoblot using the antibodies listed.
# Lysates were immunoprecipitated (IP) with pan met-K antibody and immunoblotted with HA antibody (top), or the usage of the two antibodies was reversed (bottom). Expression of HA-tagged proteins and β-actin (loading control) in the unfractionated extracts is shown at the bottom (Input). For FIG. 17D, Cos-7 cells were transfected with a plasmid encoding full length HA-hG9a and treated with 2 μM UNC0646 or vehicle DMSO for 24 h. Lysates were immunoprecipitated with pan met-K antibody and immunoblotted with HA antibody (top), or the usage of the two antibodies was reversed (bottom).
# Lysates were immunoprecipitated with pan met-K antibody and immunoblotted with HA antibody (top).
# endogenous G9a and GLP = target: T2, endogenous G9a and GLP (Homo sapiens, UniProt Q96KQ7+Q9H9B1); assay: Methylation of endogenous G9a and GLP in A549 cells; type: cell-based; details: 2 μM, 24 h
# T2 construct: highlight methylation of endogenous G9a and GLP in A549 cells; endogenous in cells; host or cells: A549
# Method: Cos-7 or A549 cells were seeded on 10-cm dishes the day before transfection. Cells were transiently transfected (where indicated) using Lipofectamine 2000 (Invitrogen) with 5 μg each of the indicated plasmids according to the manufacturer's protocol. At 48 h after transfection, cells were treated (or not) with dex for the indicated time period, and cell extracts were prepared in RIPA buffer (50 mM Tris-HCl, pH 8, 150 mM NaCl, 1 mM EDTA, 1% NP-40 and 0.25% deoxycholate) supplemented with protease inhibitor tablets (Roche Molecular Biochemicals) and phosphatase inhibitors (1 mM NaF, 1 mM Na3VO4 and 1 mM β-glycerophosphate). Protein extracts were incubated with 1 μg of the indicated primary antibodies overnight at 4° C. with shaking. Protein A/G Plus Agarose (Santa Cruz sc-2003) beads were added and the mixture was incubated 2 hr at 4° C. The immunoprecipitates were separated on SDS-PAGE. […] In immunoprecipitation experiments 3% of the input of each sample was analyzed by immunoblot using the antibodies listed.
# The results as shown in FIGS. 24E-1 and 24E-2 highlight methylation of endogenous G9a and GLP in A549 cells. […] Western-Blot quantification was determined relative to input using ChemiDoc MP (Biorad) to measure chemiluminescence from the immunoblots, and the ratio of the IP signal to the input signal was calculated for each sample.
SMILES,level of G9a methylation (G9a methylation),pan-methyllysine antibody signal on wild type hG9a (hG9a),endogenous level of G9a and GLP (endogenous G9a and GLP),proportion of G9a and GLP that was methylated (endogenous G9a and GLP)
"Clc1ccc(N/N=C(\c2ccccc2)c2ccccn2)nc1 [JIB-04, 5-chloro-N-[(E)-[phenyl(pyridin-2-yl)methylidene]amino]pyridin-2-amine]",increased,–,–,–
COc1cc2c(NC3CCN(C4CCCCC4)CC3)nc(N3CCCN(C(C)C)CC3)nc2cc1OCCCN1CCCCC1 [UNC0646],–,strongly decreased,increased,decreased substantially
